Biological target: CK2A1 (CK2α/β) (Homo sapiens, UniProt P68400)
Experiment: CK2 kinase assay, CK2A1 (CK2α/β)
Format: biochemical
Details: Table A; read-out: CK2A1 (CK2α/β) (IC50)

Sequence of CK2A1 (CK2α/β) (P68400 whole entry, species assumed): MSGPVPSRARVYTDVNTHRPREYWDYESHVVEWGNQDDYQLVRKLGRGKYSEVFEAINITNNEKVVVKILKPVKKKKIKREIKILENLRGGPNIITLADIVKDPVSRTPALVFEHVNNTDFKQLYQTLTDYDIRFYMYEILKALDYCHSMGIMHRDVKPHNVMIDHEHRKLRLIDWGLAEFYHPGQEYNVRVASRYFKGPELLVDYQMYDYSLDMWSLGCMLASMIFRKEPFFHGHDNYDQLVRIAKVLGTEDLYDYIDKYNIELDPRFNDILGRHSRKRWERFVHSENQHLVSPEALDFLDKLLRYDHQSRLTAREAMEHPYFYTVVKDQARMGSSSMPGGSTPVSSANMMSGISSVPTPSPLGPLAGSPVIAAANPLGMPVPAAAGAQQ
Sequence of CK2A1 (CK2α/β) (P67870 whole entry partner, species assumed): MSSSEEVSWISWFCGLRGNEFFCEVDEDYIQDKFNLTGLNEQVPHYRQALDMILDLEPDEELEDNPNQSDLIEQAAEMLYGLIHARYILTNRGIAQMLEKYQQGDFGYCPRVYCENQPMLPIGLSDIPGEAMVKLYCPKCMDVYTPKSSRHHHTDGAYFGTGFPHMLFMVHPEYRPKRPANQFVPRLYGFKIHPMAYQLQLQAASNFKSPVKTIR

Structure (SMILES)	IC50 [pM]
CN1CCC(N2CCN(c3cc(C#N)cc(Nc4nc(NC5CC5)c5ncc(C#N)n5n4)c3Cl)CC2)CC1 [Example 15, 2-((2-chloro-5-cyano-3-(4-(1-methyl-4-piperidinyl)-1-piperazinyl)phenyl)amino)-4-(cyclopropylamino)imidazo [2,1-f][1,2,4]triazine-7-carbonitrile]	1980
CC(C)(O)C1CCN(c2cc(C#N)cc(Nc3nc(NC4CC4)c4ncc(C#N)n4n3)c2Cl)CC1 [Example 16, 2-((2-chloro-5-cyano-3-(4-(1-hydroxy-1-methylethyl)-1-piperidinyl)phenyl)amino)-4-(cyclopropylamino)imidazo [2,1-f][1,2,4]triazine-7-carbonitrile]	1000
CC1(N)CCN(c2cc(C#N)cc(Nc3nc(NC4CC4)c4ncc(C#N)n4n3)c2Cl)CC1 [Example 18, 2-((3-(4-amino-4-methyl-1-piperidinyl)-2-chloro-5-cyanophenyl)amino)-4-(cyclopropylamino)imidazo [2,1-f][1,2,4]triazine-7-carbonitrile]	550
CN1CCC2(CC1)CN(c1cc(C#N)cc(Nc3nc(NC4CC4)c4ncc(C#N)n4n3)c1Cl)C2 [Example 22, 2-((2-chloro-5-cyano-3-(7-methyl-2,7-diazaspiro[3.5]non-2-yl)phenyl)amino)-4-(cyclopropylamino)imidazo [2,1-f][1,2,4]triazine-7-carbonitrile]	680
C[C@@H]1CN(c2cc(C#N)cc(Nc3nc(NC4CC4)c4ncc(C#N)n4n3)c2Cl)C[C@H](C)N1C [Example 24, (+/−) 2-((2-chloro-5-cyano-3-((3R,5S)-3,4,5-trimethyl-1-piperazinyl)phenyl)amino)-4-(cyclopropylamino)imidazo [2,1-f][1,2,4]triazine-7-carbonitrile]	1000
CN1CCCN(C2CN(c3cc(C#N)cc(Nc4nc(NC5CC5)c5ncc(C#N)n5n4)c3Cl)C2)CC1 [Example 29, 2-((2-chloro-5-cyano-3-(3-(4-methyl-1,4-diazepan-1-yl)-1-azetidinyl)phenyl)amino)-4-(cyclopropylamino)imidazo [2,1-f][1,2,4]triazine-7-carbonitrile]	310
CO[C@@H]1CN(c2cc(C#N)cc(Nc3nc(NC4CC4)c4ncc(C#N)n4n3)c2Cl)C[C@@H]1N [Example 30, 2-((3-((3S,4R)-3-amino-4-methoxy-1-pyrrolidinyl)-2-chloro-5-cyanophenyl)amino)-4-(cyclopropylamino)imidazo [2,1-f][1,2,4]triazine-7-carbonitrile]	920
C[C@]1(N)CCN(c2cc(C#N)cc(Nc3nc(NC4CC4)c4ncc(C#N)n4n3)c2Cl)C[C@@H]1O [Example 36, 2-((3-((3S,4S)-4-amino-3-hydroxy-4-methyl-1-piperidinyl)-2-chloro-5-cyanophenyl)amino)-4-(cyclopropylamino)imidazo [2,1-f][1,2,4]triazine-7-carbonitrile]	320
CC(C)(O)[C@@H]1CN(c2cc(C#N)cc(Nc3nc(NC4CC4)c4ncc(C#N)n4n3)c2Cl)CCO1 [Example 37, 2-((2-chloro-5-cyano-3-((2S)-2-(1-hydroxy-1-methylethyl)-4-morpholinyl)phenyl)amino)-4-(cyclopropylamino)imidazo [2,1-f][1,2,4]triazine-7-carbonitrile]	350
CC(C)(O)[C@H]1CN(c2cc(C#N)cc(Nc3nc(NC4CC4)c4ncc(C#N)n4n3)c2Cl)CCO1 [Example 38, 2-((2-chloro-5-cyano-3-((2R)-2-(1-hydroxy-1-methylethyl)-4-morpholinyl)phenyl)amino)-4-(cyclopropylamino)imidazo [2,1-f][1,2,4]triazine-7-carbonitrile]	1200
N#Cc1cc(Nc2nc(NC3CC3)c3ncc(C#N)n3n2)c(Cl)c(N2CCC(O)CC2)c1 [Example 39, 2-((2-chloro-5-cyano-3-(4-hydroxy-1-piperidinyl)phenyl)amino)-4-(cyclopropylamino)imidazo [2,1-f][1,2,4]triazine-7-carbonitrile]	460
N#Cc1cc(Nc2nc(NC3CC3)c3ncc(C#N)n3n2)c(Cl)c(N2CCC[C@@H](N)C2)c1 [Example 40, (R)-2-(3-(3-aminopiperidin-1-yl)-2-chloro-5-cyanophenylamino)-4-(cyclopropylamino)imidazo [1,2-f][1,2,4]triazine-7-carbonitrile]	2490
COC(=O)N[C@@H]1CCCN(c2cc(C#N)cc(Nc3nc(NC4CC4)c4ncc(C#N)n4n3)c2Cl)C1 [Example 41, methyl ((3R)-1-(2-chloro-5-cyano-3-((7-cyano-4-(cyclopropylamino)imidazo [2,1-f][1,2,4]triazin-2-yl)amino)phenyl)-3-piperidinyl)carbamate]	940
N#Cc1cc(Nc2nc(NC3CC3)c3ncc(C#N)n3n2)c(Cl)c(N2CCC[C@@H](NC3COC3)C2)c1 [Example 42, 2-((2-chloro-5-cyano-3-((3R)-3-(3-oxetanylamino)-1-piperidinyl)phenyl)amino)-4-(cyclopropylamino)imidazo [2,1-f][1,2,4]triazine-7-carbonitrile]	2580
CC(C)(O)CN[C@@H]1CCCN(c2cc(C#N)cc(Nc3nc(NC4CC4)c4ncc(C#N)n4n3)c2Cl)C1 [Example 43, 2-((2-chloro-5-cyano-3-((3R)-3-((2-hydroxy-2-methylpropyl)amino)-1-piperidinyl)phenyl)amino)-4-(cyclopropylamino)imidazo [2,1-f][1,2,4]triazine-7-carbonitrile]	1820
N#Cc1cc(Nc2nc(NC3CC3)c3ncc(C#N)n3n2)c(Cl)c(N2CC[C@@H](NC3COC3)C2)c1 [Example 44, 2-((2-chloro-5-cyano-3-((3R)-3-(3-oxetanylamino)-1-pyrrolidinyl)phenyl)amino)-4-(cyclopropylamino)imidazo [2,1-f][1,2,4]triazine-7-carbonitrile]	330
CC1(O)CN([C@@H]2CCCN(c3cc(C#N)cc(Nc4nc(NC5CC5)c5ncc(C#N)n5n4)c3Cl)C2)C1 [Example 45, 2-((2-chloro-5-cyano-3-((3R)-3-(3-hydroxy-3-methyl-1-azetidinyl)-1-piperidinyl)phenyl)amino)-4-(cyclopropylamino)imidazo [2,1-f][1,2,4]triazine-7-carbonitrile]	960
N#Cc1cc(Nc2nc(NC3CC3)c3ncc(C#N)n3n2)c(Cl)c(N2CC[C@@H](N)C2)c1 [Example 46, (R)-2-(3-(3-aminopyrrrolidin-1-yl)-2-chloro-5-cyanophenylamino)-4-(cyclopropylamino)imidazo [1,2-f][1,2,4]triazine-7-carbonitrile]	1310
CC1(O)CN([C@@H]2CCN(c3cc(C#N)cc(Nc4nc(NC5CC5)c5ncc(C#N)n5n4)c3Cl)C2)C1 [Example 47, (R)-2-(2-chloro-5-cyano-3-(3-(3-hydroxy-3-methylazetidin-1-yl)pyrrolidin-1-yl)phenylamino)-4-(cyclopropylamino)imidazo [1,2-f][1,2,4]triazine-7-carbonitrile]	1730
N#Cc1cc(Nc2nc(NC3CC3)c3ncc(C#N)n3n2)c(Cl)c(N2CCC3(CC2)COC3)c1 [Example 48, 2-((2-chloro-5-cyano-3-(2-oxa-7-azaspiro[3.5]non-7-yl)phenyl)amino)-4-(cyclopropylamino)imidazo [2,1-f][1,2,4]triazine-7-carbonitrile]	710
CN(CCN)c1cc(C#N)cc(Nc2nc(NC3CC3)c3ncc(C#N)n3n2)c1Cl [Example 50]	630

— patent US9273057B2 (Bristol-Myers Squibb Company, priority 2012, dated 2016)
